Patent US20070077308A1, “CONTINUOUS MULTI-MICROENCAPSULATION PROCESS FOR IMPROVING THE STABILITY AND STORAGE LIFE OF BIOLOGICALLY ACTIVE INGREDIENTS” (priority 2003, published 2007)

Experiment: Storage stability of microencapsulated fish oil fatty acids
Format: physicochemical
From the text: We have performed tests of storage ability while remaining the active ingredients unchanged.

CCCCCCCCCCCCCCCC(=O)O [Palmitic acid]
% in the oil (d = 0): 1.1 % in the oil | % in the oil (d = 30, 4° C.): 1.1 % in the oil | % in the oil (d = 30, 25° C.): 1.1 % in the oil | % in the oil (d = 30, 45° C.): 1.1 % in the oil | % in the oil (d = 60, 45° C.): 1.1 % in the oil

CCCCCCCCCCCCCCCCCC(=O)O [Stearic acid]
% in the oil (d = 0): 1.4 % in the oil | % in the oil (d = 30, 4° C.): 1.4 % in the oil | % in the oil (d = 30, 25° C.): 1.4 % in the oil | % in the oil (d = 30, 45° C.): 1.3 % in the oil | % in the oil (d = 60, 45° C.): 1.3 % in the oil

CC/C=C\C/C=C\C/C=C\CCCCCCCC(=O)O [alpha-linolenic acid]
% in the oil (d = 0): 2.7 % in the oil | % in the oil (d = 30, 4° C.): 2.5 % in the oil | % in the oil (d = 30, 25° C.): 2.6 % in the oil | % in the oil (d = 30, 45° C.): 2.5 % in the oil | % in the oil (d = 60, 45° C.): 2.4 % in the oil

CCCCC/C=C\C/C=C\CCCCCCCC(=O)O [linoleic acid]
% in the oil (d = 0): 2.8 % in the oil | % in the oil (d = 30, 4° C.): 2.6 % in the oil | % in the oil (d = 30, 25° C.): 2.6 % in the oil | % in the oil (d = 30, 45° C.): 2.5 % in the oil | % in the oil (d = 60, 45° C.): 2.5 % in the oil

CCCCCCCC/C=C\CCCCCCCC(=O)O [oleic acid]
% in the oil (d = 0): 2.9 % in the oil | % in the oil (d = 30, 4° C.): 2.7 % in the oil | % in the oil (d = 30, 25° C.): 2.6 % in the oil | % in the oil (d = 30, 45° C.): 2.6 % in the oil | % in the oil (d = 60, 45° C.): 2.4 % in the oil
